# Laboratory results reported in patent US20090068290A1, “BIFEPRUNOX DOSES FOR TREATING SCHIZOPHRENIA” (priority 2006, published 2009).
# Entries after “also recorded” stand apart in the source; their conditions may differ.
# Assays:
# [1] = system: patients with chronic schizophrenia; assay: PANSS general psychopathology subscale score, Clinical Study Four; format: in vivo, human; conditions: FAS, ANCOVA; for PANSS general psychopathology, Adjusted Mean Change from Baseline (LS mean): LOCF
# Method: (§1) METHODOLOGY: This study was a multinational, multicenter, randomized, double-blind, parallel-group, placebo-controlled, fixed-dose study. The study consisted of a 3- to 6-day antipsychotic-free run-in period, after which patients were randomised to 6 months of double-blind treatment with fixed doses of bifeprunox (20 mg/day (BX20) or 30 mg/day (BX30)) or placebo (PBO). Patients allocated to the BX groups were up-titrated from 0.25 mg/day over 7 days (BX20) or 8 days (BX30), and then continued on these doses for the remainder of the study. […] At predetermined time points, blood samples were obtained for drug concentration analysis of BX and its major metabolites (3′- and 4′-sulfate conjugates of BX), and pharmaco-economic assessments were performed.
# [2] = Pharmacokinetic interaction of lithium and bifeprunox in healthy male subjects; format: in vivo, human; conditions: bifeprunox up to 40 mg per day and lithium 450 mg twice daily
# Method: Because bifeprunox may be used in combination with the mood-stabilizing drug lithium for the treatment of patients with psychoses and mood disorders, the effect of multiple doses of bifeprunox on the pharmacokinetic (PK) profile of lithium was evaluated. Lithium has a narrow therapeutic index that can complicate therapy, and serum levels greater than 1.5 mmol/L carry a greater risk of lithium toxicity than do lower levels.
# METHODS: This was a single center, double-blind, randomized, placebo-controlled, parallel-design study in 48 healthy male subjects. All subjects were to receive open-label lithium (450 mg) twice daily on days 1 through 8 and, provided serum levels were stable on days 5 through 7, again on days 9 through 20. Subjects whose serum levels were stable on days 5 through 7 were included in those randomized to receive, in addition to lithium 450 mg twice daily, either placebo or a rising dose of bifeprunox (0.025-40 mg) once daily on days 9 through 17, and placebo or bifeprunox 40 mg on days 18 through 21. Only a single morning dose of lithium 450 mg was administered on day 21. Lithium, steady-state Cmax, AUC over the dosing interval (0-t), and renal clearance (CL-R) values were compared between the bifeprunox and placebo groups using ANCOVA with baseline values of lithium measured on day 8 as covariate.
# [3] = Clinical laboratory assessments (lipid shifts, thyroid function), Clinical Study Two; format: in vivo, human
# Method: Pharmacokinetic (PK) data of bifeprunox in schizophrenic subjects were also assessed and are presented in a separate report (combined with data from study S1543003).
# Subjects who completed this study had the option to continue in the long-term. […] Risperidone-treated subjects were titrated from 2 mg to 6 mg daily over a three-day period and were subsequently maintained at 6 mg/day for the remainder of the treatment period. […] Blood samples were also obtained at Screening/Baseline, Week 3, and Week 6 for clinical laboratory assessments.
# CYP2C9, CYP3A4, CYP2D6 = assay: Metabolism and drug interactions of bifeprunox
# Text: The objective of this study is to assess the pharmacokinetics (PK) of bifeprunox. The PK of bifeprunox in healthy subjects were investigated based on a pooled analysis of PK parameters from 21 clinical pharmacology studies. The pooled analysis included PK profiles after single and multiple doses to 132 and 399 subjects, respectively, and explored the potential effects of age, gender, body weight, and race. In addition, PK in patients with schizophrenia were investigated using a population PK approach based on samples from 376 patients in phase II studies and 434 patients in phase III studies.
# [4] = Laboratory assessments (prolactin, lipids), Clinical Study One; format: in vivo, human
# Text: METHOD: A 6-Week randomized, placebo-controlled, risperidone-referenced dose-finding study included 589 randomized patients with an acute exacerbation of schizophrenia (DSM-IV-TR). […] The change in the Positive and Negative Symptom Scale (PANSS) total score, from baseline to endpoint, was the primary outcome measure. Secondary efficacy measures included: PANSS positive, PANSS negative, PANSS general psychopathology (GPP) score, PANSS-derived Brief Psychiatric Rating Scale (BPRS) score, Clinical Global Impressions-Severity of Illness (CGI-S), CGI-Improvement (CGI-I) scores, and responder rates. Safety and tolerability evaluations included extrapyramidal symptoms (EPS), weight gain, lipid profile, and serum prolactin. Risperidone was included for assay sensitivity.
# [5] = system: patients with chronic schizophrenia; assay: Time to deterioration, Clinical Study Four (6-month, placebo-controlled); format: in vivo, human; conditions: for proportion of patients who deteriorated / time to deterioration of schizophrenia versus PBO (in words): 6 months; for proportion of patients who deteriorated / estimated hazard ratio relative to PBO, time to deterioration (Cox proportional hazards model) / Hazard Ratio (Cox), time to deterioration / % Deteriorated / No. of Pts Deteriorated: FAS; for time to deterioration of schizophrenia versus PBO (in words): BX 20 and 30 mg/day
# Method: as §1
# Investigational Product, Dose and Mode of Administration, Batch Number: Bifeprunox—up-titration over 7 (20 mg) or 8 days (30 mg) to 20 or 30 mg once daily; encapsulated tablets, orally.
# Reference Thera Dose and Mode of Administration: Placebo—encapsulated tablets, orally.
# [6] = Pooled metabolic analysis, 6-week studies: glucose
# Text: OBJECTIVE: To examine the metabolic effects of bifeprunox in patients with acute and stable schizophrenia.
# METHODS: Metabolic data was compiled from one 6-month and four 6-week studies (i.e., a treatment period) of bifeprunox in patients with stable and acute schizophrenia, respectively. In the 6-month study, patients received bifeprunox (n=331) or placebo (PBO) (n=166). […] Metabolic evaluations included body weight, body mass index (BMI), plasma glucose and lipid profiles. Fasting glucose and lipid values were assessed in one 6-week study and in the 6-month study. Triglyceride:HDL ratio (TG:HDL) was calculated as a marker of insulin resistance. No statistical analyses were performed; only descriptive statistics are presented.
compound,measurement,setting,value
"O=c1[nH]c2cccc(N3CCN(Cc4cccc(-c5ccccc5)c4)CC3)c2o1 [Bifeprunox, 7-[4-([1,1′-biphenyl]-3-ylmethyl)-1-piperazinyl]-2(3H)-benzoxazolone]","PANSS general psychopathology subscale scores versus PBO, per-visit LOCF analysis",[1]; BX20 and BX30,statistically significantly superior to PBO from Week 9 onwards
same,"PANSS general psychopathology, Adjusted Mean Change from Baseline (LS mean)","[1]; Month 6, listed as BX20",0.4
same,"PANSS general psychopathology, Adjusted Mean Change from Baseline (LS mean)","[1]; Month 6, listed as BX30",0.8
same,"PANSS general psychopathology, Adjusted Mean Change from Baseline (LS mean)","[1]; Week 6, listed as BX20",−1.2
same,"PANSS general psychopathology, Adjusted Mean Change from Baseline (LS mean)","[1]; Week 6, listed as BX30",−0.4
same,tolerability of combined administration,[2],well tolerated
same,incidence of N to H shifts in tri-iodine thyronine,[3]; Bifeprunox 30 mg,6%
same,incidence of N to L shifts in TSH,[3]; Bifeprunox 30 mg,4%
same,incidence of N to H shifts in tri-iodine thyronine,[3]; Bifeprunox 40 mg,5%
same,incidence of N to L shifts in TSH,[3]; Bifeprunox 40 mg,5%
same,shifts in lipids compared with the placebo and risperidone groups,"[3]; bifeprunox 30, 40 mg, 6 weeks","lower incidence of N to H shifts in triglycerides, VLDL, and LDL"
same,metabolizing enzymes,"CYP2C9, CYP3A4, CYP2D6; human, in vivo","metabolized by CYP2C9, CYP3A4 and to a lesser extent, CYP2D6"
same,interaction potential,"CYP2C9, CYP3A4, CYP2D6; in vivo",low interaction potential
same,plasma levels in CYP2C9 slow/intermediate metabolizers,"CYP2C9, CYP3A4, CYP2D6; vs subjects with normal enzyme activity",higher plasma levels
same,bifeprunox exposure on co-administration,"CYP2C9, CYP3A4, CYP2D6; with carbamazepine (CYP3A4 inducer)",reduced
same,bifeprunox exposure on co-administration,"CYP2C9, CYP3A4, CYP2D6; with fluconazole (CYP2C9 inhibitor)",increased
same,prolactin,"[4]; bifeprunox 5-20 mg, 6 weeks, vs placebo",decreased prolactin levels; also recorded: a decrease in prolactin compared with the placebo group
same,non-fasting triglycerides and total cholesterol compared to placebo,"[4]; bifeprunox, 6 weeks (Example 4)",statistically significant improvements
same,proportion of patients who deteriorated,[5]; BX20 (20 mg/day),41%
same,"estimated hazard ratio relative to PBO, time to deterioration (Cox proportional hazards model)",[5]; BX20 (20 mg/day),0.66
same,"Hazard Ratio (Cox), time to deterioration",[5]; BX20 (bifeprunox 20 mg) relative to PBO,0.656
same,% Deteriorated,[5]; BX20 (bifeprunox 20 mg),40.5%
same,No. of Pts Deteriorated,"[5]; BX20 (bifeprunox 20 mg), N 158",64
same,time to deterioration of schizophrenia versus PBO (in words),[5],prevented deterioration of schizophrenia statistically significantly better than placebo
same,time to deterioration of schizophrenia versus PBO (in words),[5]; listed as BX,statistically significantly longer time to deterioration
same,proportion of patients who deteriorated,[5]; BX30 (30 mg/day),38%
same,"estimated hazard ratio relative to PBO, time to deterioration (Cox proportional hazards model)",[5]; BX30 (30 mg/day),0.65
same,"Hazard Ratio (Cox), time to deterioration",[5]; BX30 (bifeprunox 30 mg) relative to PBO,0.653
same,% Deteriorated,[5]; BX30 (bifeprunox 30 mg),38.4%
same,No. of Pts Deteriorated,"[5]; BX30 (bifeprunox 30 mg), N 172",66
same,change in mean fasting glucose at endpoint,[6],-1.44 mg/dL
same,decrease in mean fasting glucose at endpoint,[6],1.6%
